The target of the assay is Bile salt-activated lipase (Sus scrofa). Nature of the assay: Inhibition of the Pancreatic Cholesterol Esterase from porcine.

SMILES strings stand for the structures.

Turning to `O=c1oc(Cl)ccc1CCC1CCCCC1` [6-Chloro-3-(2-cyclohexyl-ethyl)-pyran-2-one], the Ki is 0.025 µM.

Take `O=c1oc(Cl)ccc1CC1CCCCC1` [6-Chloro-3-cyclohexylmethyl-pyran-2-one]: the Ki turned out to be 2.2 µM.

`O=c1oc(Cl)ccc1CCCC1CCCCC1` [6-Chloro-3-(3-cyclohexyl-propyl)-pyran-2-one]: the Ki is 0.06 µM.

(Values after BindingDB's records for doi:10.1021/jm990309x (University of New Mexico, 1999).)
